The source of these data is article PMC6896172, “Successful Targeting of the Warburg Effect in Prostate Cancer by Glucose-Conjugated 1,4-Naphthoquinones” (Cancers, 2019).

In data set [1] the test system is MRC-9 cells. Put plainly: MTT cytotoxicity assay in MRC-9 cells. It is filed as cell-based. As to conditions: Homo sapiens, MRC9, 48 h of treatment, non-cancer. The method, then:
(§1) Dr. Dr. med. Sonja Loges (University Medical Center Hamburg-Eppendorf, Hamburg, Germany). Cells were cultured according to the manufacturers’ instructions and were recently authenticated by a commercial service (Multiplexion, Heidelberg, Germany). Culture conditions are described in the Supplementary Information.
(§2) MTT (3-(4,5-dimethylthiazol-2-yl)-2,5-diphenyltetrazolium bromide) cytotoxicity assay was used for the evaluation of cytotoxicity of the compounds or their combinations. Experiments were performed as previously described. In brief, 6000 cells/well were seeded in 96-well plate, incubated overnight, and treated with the drugs in 100 µL/well of 10% FBS/RPMI media containing 2 g/L of D-(+)-glucose for 48 h, unless otherwise stated. For 2 h treatment the cells were treated with the drugs for 2 h in the culture media, then the media was exchanged to fresh drug-free media (100 µL/well) containing MTT reagent and the further steps were performed as previously described.
(In general: Formazan colour is commonly taken as a measure of viable cells.)

The test system of data set [2] is 22Rv1 cells. Description: Western blotting of treated cells. In kind it is cell-based, human. The method, then:
Preparation of protein extracts for western blotting was performed as described previously. In brief, for western blotting, 1 × 10^6 cells/well were seeded in Petri dishes (ø 6 cm TC Dish (Sarstedt, Numbrecht, Germany) in 5 mL/dish), incubated overnight and treated with drugs in 5 mL/dish for an indicated time. Cells were harvested using a cell scraper, pelleted, and resuspended in the lysis buffer containing protease and phosphatase inhibitors. Further sample preparation and western blotting were performed as previously described with slight modifications. Relative optical density of the detected bands was quantified with Quantity One 4.6 software (Bio-Rad, Hercules, CA, USA). The primary and secondary antibodies used are listed in the Supplementary Information.

For data set [3], the system named is 22Rv1 cells. Put plainly: Intracellular ROS (CM-H2DCFDA, flow cytometry). It is filed as cell-based, human. Particulars: 2 h of treatment. The method, then: Intracellular ROS levels were estimated using the ROS-sensitive CM-H2DCFDA reagent (Cat. No. C6827, Molecular probes, Invitrogen, Eugene, OR, USA) as described before. In brief, 22Rv1 cells were seeded in 12-well plates (0.2 × 10^6 cells/well in 1 mL/well of media) and incubated overnight. The media was changed into freshly made pre-warmed 4 µM CM-H2DCFDA/PBS (0.5 mL/well) and incubated for 30 min (37 °C, 5% CO2, in the dark). Then, the CM-H2DCFDA solution was exchanged with 1 mL/well of pre-warmed PBS containing the drugs or H2O2 (positive control) at the indicated concentrations. After 2 h of incubation the cells were trypsinized and immediately analyzed by flow cytometry technique according to the manufacture’s protocols.
For orientation: Flow cytometry measures light scatter and fluorescence of single cells or particles in a stream.

The subject of data set [4] is 22Rv1 cells. Put plainly: Colony formation assay. In kind it is cell-based, human. As to conditions: 22Rv1 cells treated with non-cytotoxic concentrations for 48 h. The method, then: Colony formation assays were performed as described before. In brief, cells were treated with the drugs for 48 h and then 100 alive cells were plated into each well of 6-well plates and incubated for 10 days. Surviving colonies were fixed, stained with Giemsa solution and counted.

Data set [5] relates to VCaP cells. Put plainly: MTT cytotoxicity assay in VCaP cells. It is filed as cell-based. As to conditions: Homo sapiens, 48 h of treatment, cancer. The method, then:
as §1, §2

Data set [6] relates to PC-3 cells. Description: MTT cytotoxicity assay in PC-3 cells. It is filed as cell-based, human.
Source text: For general experiments human prostate cancer cell lines PC-3 and DU145 (docetaxel-resistant, androgen-independent, AR-FL(−), AR-V7(−)), 22Rv1 and VCaP (docetaxel-sensitive, androgen-independent, AR-FL(+), AR-V7(+), and LNCaP (docetaxel sensitive, androgen-dependent, AR-FL(+), AR-V7(−) were used. PC-3, 22Rv1, LNCaP cells as well as the human prostate non-cancer cells PNT2 and RWPE-1 were purchased from ATCC (Manassas, VA, USA). VCaP were purchased from ECACC (Salisbury, UK). The human fibroblast cell line MRC-9, the human embryonic kidney cell line HEK 293T, as well as the human umbilical vascular endothelial cell line HUVEC were kindly donated by Prof. Dr. Dr. med. Sonja Loges (University Medical Center Hamburg-Eppendorf, Hamburg, Germany). Cells were cultured according to the manufacturers’ instructions and were recently authenticated by a commercial service (Multiplexion, Heidelberg, Germany). Culture conditions are described in the Supplementary Information.
as §2
Table S4. Cytotoxic activity of the synthesized compounds. Cytotoxicity was determined in human prostate cancer PC-3 cells versus human prostate non-cancer
PNT2 cells after 48 h of treatment, as well as its ratio. IC50 was evaluated using MTT assay. SI–selectivity index. #–the IC50s in both cell lines were >100 µM.
Anisomycin was used as a reference substance.
No Formula IC50(PC-3) IC50(PNT2) SI […]

Data set [7] has as its system 22Rv1 cells. Put plainly: MTT cytotoxicity assay in 22Rv1 cells. It is filed as cell-based, human. Particulars: for IC50: Homo sapiens. The method, then: as §1, §2
Data set [8] deals with RWPE-1 cells. Description: MTT cytotoxicity assay in RWPE-1 cells. It is filed as cell-based. Particulars: Homo sapiens, 48 h of treatment, non-cancer. The method, then: as §1, §2
In data set [9] the test system is DU145 cells. Description: MTT cytotoxicity assay in DU145 cells. It is filed as cell-based. Particulars: Homo sapiens, DU-145, 48 h of treatment, cancer. The method, then: as §1, §2
In data set [10] the test system is HEK293 cells. Description: MTT cytotoxicity assay in HEK293 cells. In kind it is cell-based. As to conditions: Homo sapiens, 48 h of treatment, non-cancer. The method, then: as §1, §2
Data set [11] relates to HUVEC cells. Put plainly: MTT cytotoxicity assay in HUVEC cells. It is filed as cell-based. As to conditions: Homo sapiens, 48 h of treatment, non-cancer. The method, then:
as §1, §2

The subject of data set [12] is 22Rv1 cells. Put plainly: Trypan blue exclusion viability assay. In kind it is cell-based. Particulars: Homo sapiens, 48 h of treatment. The method, then: The in vitro effect of the drugs on cell viability and proliferation was evaluated using trypan blue exclusion assay as described before with minor modifications. In brief, cells (0.2 × 10^6 cells/well) were seeded in 12-well plates, incubated overnight, the media was replaced with fresh media (1 mL/well) and treated with the drugs for 48 h. Cells were harvested by trypsination and the viability was measured using trypan blue staining and Beckman Coulter Vi-CELL (Beckman Coulter, Krefeld, Germany).

For data set [13], the system named is 22Rv1 cells. Description: Mitochondrial membrane potential assay (JC-1, flow cytometry). In kind it is cell-based, human. Particulars: 2 h of treatment. The method, then:
The loss of mitochondrial membrane potential (Δψ) was measured by flow cytometry technique using staining with Δψ-sensitive dye JC-1 (5,5′,6,6′-tetrachloro-1,1′,3,3′-tetraethylimidacarbocyanine iodide). Cells were seeded in 12-well plates (100 × 10^3 cells/well in 1 mL/well) and incubated overnight. Then, the media was changed to PBS (1 mL/well) containing the investigational drugs. After 2 h of incubation (37 °C, 5% CO2, in the dark) the cells were trypsinized, pelleted, resuspended in 100 µL of 2 µM JC-1/PBS, incubated for 1 h (37 °C, 5% CO2, in the dark) and Δψ loss was measured by flow cytometry technique.

Broadly, the IC50 is the concentration that gives 50% inhibition. Take `CC1(C)OC2OC(C(O)COC3=CC(=O)c4cccc(O)c4C3=O)C(O)C2O1` (centres unmarked) [Compound 11]: the IC50 in data set [1] was 3740 nM; in data set [5] it was 3110 nM; in data set [6] (Homo sapiens, PC-3, 48 h, 48 h of treatment), 2070 nM; in data set [7] (22Rv1, 48 h of treatment, cancer, read-out: IC50 (22Rv1)), 710 nM; in data set [7] (22Rv1 cells, 2 h treatment, read-out: IC50 after 2 h of treatment), 20400 nM; in data set [8] it was 1480 nM. Also, the IC50 in [9] is 470 nM; in data set [10], 4460 nM; in [11] it was 4310 nM; in [12] it was 2040 nM. Besides, in data set [2] (2 h and 48 h treatment), the “cleavage of caspase-9” value is given as “observed already after 2 h”. Also, in data set [2] (2 h treatment), the ERK1/2 activity entry is listed as “suppressed”. In addition, in [2] (2 h treatment), the MEK1/2 alteration entry was “No significant alteration”. Moreover, in data set [2] (2 h treatment), the “activation of Akt” value is listed as “slight Akt activation”. Besides, the “activation of p38 and JNK1/2” value in data set [2] (2 h treatment) is reported as “pronounced activation”. The “AR-FL and AR-V7 expression” value in data set [2] (48 h treatment) was “downregulated both, AR full length (AR-FL) and AR-V7”. The “Bax and Bcl-2 expression” value in data set [2] (48 h treatment) was “up-regulation of Bax and down-regulation of Bcl-2”. Moreover, the “LC3B-II and SQSTM1 levels (autophagy markers)” value in data set [2] (pre-cytotoxic and cytotoxic concentrations, 48 h) is “accumulation of both, LC3B-II and SQSTM1”. For the same compound, the “effect on ROS level” value in data set [3] is “remarkable and significant increase of the ROS level”. The “cancer cell colony formation” value in [4] is “suppress cancer cell colony formation”. Moreover, the “SI [IC50(PNT2) / IC50(PC-3)]” value in [6] (ratio of IC50 in PNT2 cells to IC50 in PC-3 cells, 48 h) is listed as 2.40. The “effect of N-acetyl-L-cysteine pre-treatment on cytotoxic activity” value in [7] (22Rv1 cells, 1 mM NaC 1 h then co-treatment 48 h, FBS- and glucose-free RPMI) is reported as “significantly suppressed the cytotoxic activity”. In addition, in data set [13], the “effect on ΔΨm” value is given as “quick ΔΨm loss”.
